Source: US11613556B2, “Oxysterols and methods of use thereof” (Sage Therapeutics, Inc., priority 2016, dated 2023)

target: glutamate-activated channels of the GRIN1/2A subtype stably transfected in HEK 293 cells (Homo sapiens (Human), UniProt Q05586+Q12879); assay: Automated patch-clamp system (QPatch HTX), percent potentiation at 1 μM; type: cell-based; settings: HEK293, 1 μM test compound, 300 μM NMDA with 8 μM glycine, HEK 293 GRIN1/2A, read-out: GluN2A PCA % potentiation at 1 μM
Protocol: NMDA potentiation in mammalian cells which expressed NMDA receptors was assessed using the automatic patch-clamp system can be used determine the NAM activity of compounds as described below. An whole cell patch-clamp system can be used determine the PAM activity of compounds as described below.
Automated Patch-Clamp System (OPatch HTX):
In this study, HEK 293 cells stably transfected with glutamate-activated channels of the GRIN1/2A subtype will be used together with submaximal NMDA concentrations (300 μM NMDA, co-application with 8 μM Glycine) to investigate the negative allosteric modulation of the test compounds.
In general, cells will be passaged at a confluence of about 80% to […]. For electrophysiological measurements cells will be harvested at a confluence of about 80% to 90% from sterile culture flasks containing culture complete medium. Cells will be transferred as suspension in PBS to the QPatch 16X or QPatch HTX system to the centrifuge/washer directly.
Standard Laboratory Conditions: Cells will be incubated at 37° C. in a humidified atmosphere with 5% CO2 (rel. humidity about 95%).
Culture media: The cells will be continuously maintained in and passaged in sterile culture flasks containing a 1:1 mixture of Dulbecco's modified eagle medium and nutrient mixture F-12 (D-MEM/F-12 1×, liquid, with L-Glutamine) supplemented with 10% fetal bovine serum, 1% Penicillin/Streptomycin solution, and 50 μM AP-5 blocker.
Antibiotics: The complete medium as indicated above is supplemented with 100 μg/mL hygromycin, 15 μg/mL blasticidin and 1 μg/mL puromycin.
Induction of Expression: 2.5 μg/mL tetracycline is added 24 h before start of experiments.
Dose levels are in terms of test compounds, as supplied. Vehicle will be added to achieve a stock concentration of 10 mM (storage at −10° C. to −30° C.). A further stock solutions of 1.0 mM will be prepared in DMSO. Details of stock solution usage (thawing, dose formulations) will be documented in the raw data. The time period of stock solution usage will be detailed in the report.
Test Compound Concentrations
One test concentration of 1.0 μM will be tested.
All test solutions will be prepared by diluting the stock solutions with either Mg-free bath solution only or Mg-free bath solution containing NMDA (300 μM) and glycine (8.0 μM) shortly prior to the electrophysiological experiments and kept at room temperature (19° C. to 30° C.) when in use. 0.1% DMSO will be used as vehicle.
Frequency of preparation: For each test concentration, fresh solutions of test compounds will be prepared every day.
Stability of dose formulation: All preparation times will be documented in the raw data. Any observations regarding instability of test compounds will be mentioned in the raw data.
Storage of dose formulation: On the day of experimentation dose formulations will be maintained at room temperature (19° C. to 30° C.) when in use.
For preparing the experiments and for formation of the giga-ohm-seal, the following standard bath solution will be used:
Sodium Chloride: 137 mM; Potassium Chloride: 4 mM; Calcium Chloride: 1.8 mM; Magnesium Chloride: 1 mM; HEPES: 10 mM; D-Glucose: 10 mM; Cremophor: 0.02%; pH (NaOH): 7.4
The 1× bath solution will be prepared by diluting 10× bath solution without Glucose and 100× Glucose solution with water at least every 7 days. Both stock solutions have been prepared prior to the experimental start of the present study and stored at 1° C. to 9° C. (10× bath solution) or −10° C. to −30° (100× Glucose solution). The batch number(s) of the bath solution(s) used in the experiments will be documented in the raw data. When in use, the 1× bath solution will be kept at room temperature (19° C. to 30° C.). When not in use, the 1× bath solution will be stored at 1° C. to 9° C.
After the giga-seal was formed the following Mg-free bath solution will be used:
Sodium Chloride: 137 mM; Potassium Chloride: 4 mM; Calcium Chloride; 2.8 mM; HEPES: 10 mM; D-Glucose: 10 mM; Cremophor: 0.02%; pH (NaOH): 7.4 […]

Chain of glutamate-activated channels of the GRIN1/2A subtype stably transfected in HEK 293 cells (Q12879 whole entry, looked up, other chains not shown): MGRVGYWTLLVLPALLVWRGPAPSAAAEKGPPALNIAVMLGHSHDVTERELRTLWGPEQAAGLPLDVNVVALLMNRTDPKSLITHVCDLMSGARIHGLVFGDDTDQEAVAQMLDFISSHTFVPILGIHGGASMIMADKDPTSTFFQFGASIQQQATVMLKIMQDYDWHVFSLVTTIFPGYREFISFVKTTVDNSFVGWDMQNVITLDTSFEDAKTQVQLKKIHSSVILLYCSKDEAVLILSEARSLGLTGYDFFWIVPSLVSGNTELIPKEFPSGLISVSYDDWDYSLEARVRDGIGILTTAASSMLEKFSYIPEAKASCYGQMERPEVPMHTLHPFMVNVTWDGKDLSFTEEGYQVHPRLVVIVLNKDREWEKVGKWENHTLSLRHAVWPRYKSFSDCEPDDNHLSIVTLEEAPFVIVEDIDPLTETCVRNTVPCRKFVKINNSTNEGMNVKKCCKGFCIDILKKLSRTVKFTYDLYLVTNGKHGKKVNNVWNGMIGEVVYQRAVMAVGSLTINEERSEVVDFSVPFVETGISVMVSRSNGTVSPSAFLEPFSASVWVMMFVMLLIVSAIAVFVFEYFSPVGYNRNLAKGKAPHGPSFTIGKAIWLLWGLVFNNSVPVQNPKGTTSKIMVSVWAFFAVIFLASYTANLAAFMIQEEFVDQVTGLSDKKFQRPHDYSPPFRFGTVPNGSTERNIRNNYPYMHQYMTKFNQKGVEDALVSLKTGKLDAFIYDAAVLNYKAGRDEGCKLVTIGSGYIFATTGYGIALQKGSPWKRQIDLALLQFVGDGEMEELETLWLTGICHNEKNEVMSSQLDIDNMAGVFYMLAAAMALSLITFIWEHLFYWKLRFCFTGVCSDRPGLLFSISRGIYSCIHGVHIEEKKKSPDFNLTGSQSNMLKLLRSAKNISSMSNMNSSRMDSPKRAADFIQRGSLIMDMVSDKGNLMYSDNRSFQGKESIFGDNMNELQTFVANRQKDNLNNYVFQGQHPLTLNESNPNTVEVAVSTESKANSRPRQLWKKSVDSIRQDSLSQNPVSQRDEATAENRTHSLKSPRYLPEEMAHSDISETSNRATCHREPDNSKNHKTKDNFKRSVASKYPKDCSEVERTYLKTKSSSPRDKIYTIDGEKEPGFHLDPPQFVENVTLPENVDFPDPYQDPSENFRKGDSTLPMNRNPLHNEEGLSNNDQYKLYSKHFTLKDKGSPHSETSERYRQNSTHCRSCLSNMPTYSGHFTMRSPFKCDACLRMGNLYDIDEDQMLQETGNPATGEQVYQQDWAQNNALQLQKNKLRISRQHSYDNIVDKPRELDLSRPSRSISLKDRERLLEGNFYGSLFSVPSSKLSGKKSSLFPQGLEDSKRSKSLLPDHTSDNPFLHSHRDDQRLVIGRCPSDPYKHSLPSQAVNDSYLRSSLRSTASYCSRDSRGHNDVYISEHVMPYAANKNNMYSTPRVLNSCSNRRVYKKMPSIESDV

Compound	activation at 1 µM [%]
CC[C@]1(O)CC[C@@]2(C)[C@@H](CC[C@@H]3[C@@H]2CC[C@]2(C)[C@@H]([C@H](C)[C@H](O)c4ccccc4)CC[C@@H]32)C1 [Compound 19, (3S,5S,8R,9S,10S,13S,14S,17R)-3-ethyl-17-((1S,2S)-1-hydroxy-1-phenylpropan-2-yl)-10,13-dimethylhexadecahydro-1H-cyclopenta[a]phenanthren-3-ol]	-40 to -10
CC[C@H](O)[C@@H](C)[C@H]1CC[C@H]2[C@@H]3CC[C@H]4C[C@](O)(CC)CC[C@]4(C)[C@H]3CC[C@]12C [Compound 21, (3S,5S,8R,9S,10S,13S,14S,17R)-3-ethyl-17-((2S,3S)-3-hydroxypentan-2-yl)-10,13-dimethylhexadecahydro-1H-cyclopenta[a]phenanthren-3-ol]	-40 to -10
C[C@@H]([C@H]1CC[C@H]2[C@@H]3CC[C@H]4C[C@](O)(C(F)(F)F)CC[C@]4(C)[C@H]3CC[C@]12C)[C@@H](C)O [Compound 22, (3S,5S,8R,9S,10S,13S,14S,17R)-17-((2S,3R)-3-hydroxybutan-2-yl)-10,13-dimethyl-3-(trifluoromethyl)hexadecahydro-1H-cyclopenta[a]phenanthren-3-ol]	-10 to 10
COC[C@]1(O)CC[C@@]2(C)C(=CC[C@H]3[C@@H]4CC[C@H]([C@H](C)[C@H](O)C(F)(F)F)[C@@]4(C)CC[C@@H]32)C1 [Compound 39, (3S,8S,9S,10R,13S,14S,17R)-3-(methoxymethyl)-10,13-dimethyl-17-((2S,3S)-4,4,4-trifluoro-3-hydroxybutan-2-yl)-2,3,4,7,8,9,10,11,12,13,14,15,16,17-tetradecahydro-1H-cyclopenta[a]phenanthren-3-ol]	-40 to -10
CC#CC[C@H](O)[C@@H](C)[C@H]1CC[C@H]2[C@@H]3CC[C@H]4C[C@](O)(CC)CC[C@]4(C)[C@H]3CC[C@]12C [Compound 41, (3S,5S,8R,9S,10S,13S,14S,17R)-3-ethyl-17-((2S,3S)-3-hydroxyhept-5-yn-2-yl)-10,13-dimethylhexadecahydro-1H-cyclopenta[a]phenanthren-3-ol]	-40 to -10
CC[C@]1(O)CC[C@@]2(C)[C@H](CC[C@@H]3[C@@H]2CC[C@]2(C)[C@@H]([C@H](C)[C@@H](O)C(F)(F)F)CC[C@@H]32)C1 [Compound 43, (3S,5R,8R,9S,10S,13S,14S,17R)-3-ethyl-10,13-dimethyl-17-((2S,3R)-4,4,4-trifluoro-3-hydroxybutan-2-yl)hexadecahydro-1H-cyclopenta[a]phenanthren-3-ol]	< -40
COC[C@]1(O)CC[C@H]2[C@H](CC[C@@H]3[C@@H]2CC[C@]2(C)[C@@H]([C@H](C)[C@@H](O)C(F)(F)F)CC[C@@H]32)C1 [Compound 45, (3S,5R,8R,9R,10S,13S,14S,17R)-3-(methoxymethyl)-13-methyl-17-((2S,3R)-4,4,4-trifluoro-3-hydroxybutan-2-yl)hexadecahydro-1H-cyclopenta[a]phenanthren-3-ol]	-40 to -10
COC[C@]1(O)CC[C@H]2[C@H](CC[C@@H]3[C@@H]2CC[C@]2(C)[C@@H]([C@H](C)[C@H](O)C(F)(F)F)CC[C@@H]32)C1 [Compound 48, (3S,5R,8R,9R,10S,13S,14S,17R)-3-(methoxymethyl)-13-methyl-17-((2S,3S)-4,4,4-trifluoro-3-hydroxybutan-2-yl)hexadecahydro-1H-cyclopenta[a]phenanthren-3-ol]	-40 to -10
CC[C@]1(O)CC[C@@]2(C)[C@@H](CC[C@@H]3[C@@H]2CC[C@]2(C)[C@@H]([C@H](C)[C@H](C)O)CC[C@@H]32)C1 [Compound 50, (3S,5S,8R,9S,10S,13S,14S,17R)-3-ethyl-17-((2S,3S)-3-hydroxybutan-2-yl)-10,13-dimethylhexadecahydro-1H-cyclopenta[a]phenanthren-3-ol]	-40 to -10
C[C@H]([C@@H](O)C(F)(F)F)[C@H]1CC[C@H]2[C@@H]3CC=C4C[C@](O)(C(F)(F)F)CC[C@]4(C)[C@H]3CC[C@]12C [Compound 53, (3S,8S,9S,10R,13S,14S,17R)-10,13-dimethyl-17-((2S,3R)-4,4,4-trifluoro-3-hydroxybutan-2-yl)-3-(trifluoromethyl)-2,3,4,7,8,9,10,11,12,13,14,15,16,17-tetradecahydro-1H-cyclopenta[a]phenanthren-3-ol]	-40 to -10
CC[C@]1(O)CC[C@@]2(C)[C@@H](CC[C@@H]3[C@@H]2CC[C@]2(C)[C@@H]([C@H](C)[C@@H](O)c4ccccc4)CC[C@@H]32)C1 [Compound 55, (3S,5S,8R,9S,10S,13S,14S,17R)-3-ethyl-17-((1R,2S)-1-hydroxy-1-phenylpropan-2-yl)-10,13-dimethylhexadecahydro-1H-cyclopenta[a]phenanthren-3-ol]	-40 to -10
CC[C@]1(O)CC[C@@]2(C)[C@H](CC[C@@H]3[C@@H]2CC[C@]2(C)[C@@H]([C@H](C)[C@H](O)C(F)(F)F)CC[C@@H]32)C1 [Compound 56, (3S,5R,8R,9S,10S,13S,14S,17R)-3-ethyl-10,13-dimethyl-17-((2S,3S)-4,4,4-trifluoro-3-hydroxybutan-2-yl)hexadecahydro-1H-cyclopenta[a]phenanthren-3-ol]	< -40
C[C@H]([C@@H](O)C(F)(F)F)[C@H]1CC[C@H]2[C@@H]3CC[C@@H]4C[C@@](C)(O)CC[C@]4(C)[C@H]3CC[C@]12C [Compound 57, (3S,5R,8R,9S,10S,13S,14S,17R)-3,10,13-trimethyl-17-((2S,3R)-4,4,4-trifluoro-3-hydroxybutan-2-yl)hexadecahydro-1H-cyclopenta[a]phenanthren-3-ol]	< -40
CC[C@]1(O)CC[C@@]2(C)[C@@H](CC[C@@H]3[C@@H]2CC[C@]2(C)[C@@H]([C@H](C)[C@H](O)C4CCCC4)CC[C@@H]32)C1 [Compound 58, (3S,5S,8R,9S,10S,13S,14S,17R)-17-((1R,2S)-1-cyclopentyl-1-hydroxypropan-2-yl)-3-ethyl-10,13-dimethylhexadecahydro-1H-cyclopenta[a]phenanthren-3-ol]	-40 to -10
CC[C@]1(O)CC[C@@]2(C)C(=CC[C@H]3[C@@H]4CC[C@H]([C@H](C)[C@@H](O)C(F)(F)F)[C@@]4(C)CC[C@@H]32)C1 [Compound 62, (3S,8S,9S,10R,13S,14S,17R)-3-ethyl-10,13-dimethyl-17-((2S,3R)-4,4,4-trifluoro-3-hydroxybutan-2-yl)-2,3,4,7,8,9,10,11,12,13,14,15,16,17-tetradecahydro-1H-cyclopenta[a]phenanthren-3-ol]	-40 to -10
CC[C@]1(O)CC[C@@]2(C)[C@H](CC[C@@H]3[C@@H]2CC[C@]2(C)[C@@H]([C@H](C)[C@@H](O)CCC(C)C)CC[C@@H]32)C1 [Compound 64, (3S,5R,8R,9S,10S,13S,14S,17R)-3-ethyl-17-((2S,3S)-3-hydroxy-6-methylheptan-2-yl)-10,13-dimethylhexadecahydro-1H-cyclopenta[a]phenanthren-3-ol]	-40 to -10
